Data reported in paper doi:10.1101/2025.09.24.678246 (bioRxiv, 2025).
Converted amounts (≈) assume the structure as drawn. “And” between values parts separate entries of the source, which are not always exact repeats. Identical values can stand only once. Like-named read-outs stand apart in the source and are kept apart here.

What was measured:
WT H37Rv [1] = assay: Agar MIC of C48; assay type: cell-based; conditions: Mycobacterium tuberculosis, 504 h
E. coli = assay: MIC screening against Gram-negative pathogens: E. coli
Protocol: (§1) MIC measurements were based on a method previously described[6]. Overnight liquid cultures of E. coli BW, E. coli C0244, A. baumannii ATCC 17978, K. pneumoniae ATCC 43816, P. aeruginosa PA01 and E. faecium ATCC 19434 strains were inoculated with a single colony from a freshly streaked agar plate of the corresponding bacterial strain and cultured in M9 minimal medium supplemented with amino acids[6]. The bacterial culture was prepared by washing 1 mL of overnight culture in PBS pH 7.4 (x3), then diluted to OD600 = 0.5 and used to inoculate 1:1000 in M9 minimal medium with amino acids in 96-well plates. Compounds were added to 96-well plates in two-fold serial dilutions. The plates were incubated stationary at 37 °C for 18 h, then OD600 was measured. […] The assay was performed in duplicate.

WT H37Rv [2] = assay: Time-kill kinetics in GAST medium; assay type: cell-based, Mycobacterium tuberculosis; conditions: for OD580 of C48 kill kinetics: 10µM C48, GAST medium
Mtb H37Rv [3] = assay: Supplementation experiments in Mtb (KAPA, DAPA, DTB, biotin); assay type: cell-based, Mycobacterium tuberculosis
[4] = tested on: ESKAPE panel of pathogens; assay: MIC screening against the ESKAPE panel (summary)
Protocol: as §1

HepG2 = conditions: for Growth compared to DMSO control (%): HepG2 cell
Mtb H37Rv [5] = assay type: in vivo, BALB/c mice; conditions: for spleen CFU: Day 42, standard acute model, BALB/c, per mouse
[6] = p.o.; for C48 in Plasma / C48 in lung: CD-1 mice
HT-29 = conditions: 48 h; for Growth compared to DMSO control (%): HT-29 cell
M. bovis 0AF2122 = assay: microbe, parasite or virus in culture; assay type: cell-based; conditions: Mycobacterium tuberculosis variant bovis
S. aureus = assay: MIC screening: S. aureus; assay type: cell-based
Source text: Supplement media-1.docx, table 4: Supplemental Table S4. MIC screening of C48 against a panel of pathogens and strains | column: C48 MIC (µM)^b

BioA = BioA (Mycobacterium tuberculosis, UniProt P9WQ81); assay: BioA Ki determination (tight binding, Morrison equation, 5 nM BioA); assay type: biochemical
BioA, sequence (P9WQ81 whole entry, looked up): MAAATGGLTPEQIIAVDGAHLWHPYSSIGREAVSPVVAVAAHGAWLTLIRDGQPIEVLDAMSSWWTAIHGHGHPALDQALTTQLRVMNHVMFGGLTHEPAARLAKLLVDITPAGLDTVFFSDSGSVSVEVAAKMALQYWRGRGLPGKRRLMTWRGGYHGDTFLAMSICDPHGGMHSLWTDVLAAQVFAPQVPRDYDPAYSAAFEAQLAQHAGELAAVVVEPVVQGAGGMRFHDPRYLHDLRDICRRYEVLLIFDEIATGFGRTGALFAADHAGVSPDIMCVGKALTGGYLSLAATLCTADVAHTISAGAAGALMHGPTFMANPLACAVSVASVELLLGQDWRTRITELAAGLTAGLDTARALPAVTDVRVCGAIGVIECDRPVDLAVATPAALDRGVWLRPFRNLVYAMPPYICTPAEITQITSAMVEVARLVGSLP

K. pneumoniae ATCC 43816 = assay: MIC screening against Gram-negative pathogens: K. pneumoniae
Protocol: as §1

Mtb = assay: Membrane fluidity measurements (laurdan GP); assay type: cell-based, Mycobacterium tuberculosis; conditions: 150 nM
M. abscessus = assay: MIC screening against M. abscessus (NTM); assay type: cell-based; conditions: Mycobacteroides abscessus
P. aeruginosa PA01 = assay: MIC screening against Gram-negative pathogens: P. aeruginosa
Protocol: as §1

A. baumannii ATCC 17978 = assay: MIC screening against Gram-negative pathogens: A. baumannii
Protocol: as §1

[7] = p.o. 25 mg/kg, CD-1 mice
Mtb H37Rv [8] = assay: microbe, parasite or virus in culture; assay type: cell-based, Mycobacterium tuberculosis; conditions: Mycobacterium tuberculosis, H37RV; biotin-free medium
M. africanum = assay: MIC screening against M. africanum; assay type: cell-based; conditions: Mycobacterium tuberculosis, MTBC

O=C1CCc2cc(N3CCN(C(=O)c4ccc(F)c(Br)c4)CC3)ncc21 [C48]
MIC (WT H37Rv [1]): 0.8 µM | MIC (E. coli; E. coli BW): inactive | MIC (E. coli; E. coli C0244): inactive | rate of CFU decline (WT H37Rv [2]; 10 μM, biotin-free medium, after about three doublings): one log10 CFU per week | OD580 of C48 kill kinetics (WT H37Rv [2]; day 0): 0.001 | OD580 of C48 kill kinetics (WT H37Rv [2]; day 2): 0.004 | OD580 of C48 kill kinetics (WT H37Rv [2]; day 4): 0.008 | OD580 of C48 kill kinetics (WT H37Rv [2]; day 8): 0.01 | OD580 of C48 kill kinetics (WT H37Rv [2]; day 11): 0.016 | OD580 of C48 kill kinetics (WT H37Rv [2]; day 14): 0.012 | OD580 of C48 kill kinetics (WT H37Rv [2]; day 16): 0.012 | OD580 of C48 kill kinetics (WT H37Rv [2]; day 18): 0.012 | OD580 of C48 kill kinetics (WT H37Rv [2]; day 21): 0.01 | OD580 of C48 kill kinetics (WT H37Rv [2]; day 23): 0.01 | OD580 of C48 kill kinetics (WT H37Rv [2]; day 25): 0.01 | OD580 of C48 kill kinetics (WT H37Rv [2]; day 28): 0.008 | OD580 of C48 kill kinetics (WT H37Rv [2]; day 32): 0.008 | OD580 of C48 kill kinetics (WT H37Rv [2]; day 35): 0.008 | OD580 of C48 kill kinetics (WT H37Rv [2]; day 39): 0.008 | OD580 of C48 kill kinetics (WT H37Rv [2]; day 42): 0.008 | OD580 of C48 kill kinetics (WT H37Rv [2]; day 46): 0.008 | OD580 of C48 kill kinetics (WT H37Rv [2]; day 49): 0.008 | OD580 of C48 kill kinetics (WT H37Rv [2]; day 53): 0.008 | OD580 of C48 kill kinetics (WT H37Rv [2]; day 56): 0.008 | OD580 of C48 kill kinetics (WT H37Rv [2]; day 60): 0.008 | OD580 of C48 kill kinetics (WT H37Rv [2]; day 63): 0.008 | OD580 of C48 kill kinetics (WT H37Rv [2]; day 67): 0.008 | activity against Mtb cultured with 40 nM biotin (Mtb H37Rv [3]; 40 nM biotin): minimal activity | growth inhibitory effect with biotin supplementation (Mtb H37Rv [3]; 2 μM biotin, GAST): antagonized | growth inhibitory effect with DAPA supplementation (Mtb H37Rv [3]; 50 μM DAPA, GAST): antagonized | growth inhibitory effect with desthiobiotin (DTB) supplementation (Mtb H37Rv [3]; 50 μM DTB, GAST): antagonized | growth inhibitory effect with KAPA supplementation (Mtb H37Rv [3]; 50 μM KAPA, GAST): not | activity against the entire ESKAPE panel [4]: inactive | therapeutic index (IC50/MIC50) (HepG2; HepG2 and HT-29 versus Mtb): greater than 10,000 | Growth compared to DMSO control (%) (HepG2; 3.13 μM, 48 h): 106.559% and 101.297% and 106.056% | Growth compared to DMSO control (%) (HepG2; 6.25 μM, 48 h): 105.369% and 100.246% | Growth compared to DMSO control (%) (HepG2; 12.5 μM, 48 h): 104.304% and 99.8833% | Growth compared to DMSO control (%) (HepG2; 25 μM, 48 h): 105.369% and 101.144% | Growth compared to DMSO control (%) (HepG2; 50 μM, 48 h): 106.056% and 100.625% and 106.559% | Growth compared to DMSO control (%) (HepG2; 100 μM, 48 h): 110.419% and 100.81% and 101.702% | cytotoxicity toward HepG2 (HepG2; concentrations up to 100 μM, 48 h): no cytotoxicity | spleen CFU (Mtb H37Rv [5]; 100mg/kg C48 p.o.): 1075 CFU and 3750 CFU and 6400 CFU and 18666.7 CFU and 6650 CFU and 6725 CFU | bacterial burden per mouse, Fig. 5B (Mtb H37Rv [5]; 100 mg/kg, day 14 (values identical to Vehicle Control: baseline)): 16500 and 43500 and 12750 and 24500 and 14500 | bacterial burden per mouse, Fig. 5B (Mtb H37Rv [5]; 100 mg/kg, day 28): 170000 | bacterial burden per mouse, Fig. 5B (Mtb H37Rv [5]; 100 mg/kg, day 42): 325000 and 425000 and 1800000 and 566667 and 170000 and 673000 | spleen CFU (Mtb H37Rv [5]; 200mg/kg C48 p.o.): 7225 CFU and 14500 CFU and 8975 CFU and 12750 CFU and 18750 CFU and 7075 CFU | bacterial burden per mouse, Fig. 5B (Mtb H37Rv [5]; 200 mg/kg, day 14 (values identical to Vehicle Control: baseline)): 16500 and 43500 and 12750 and 24500 and 14500 | bacterial burden per mouse, Fig. 5B (Mtb H37Rv [5]; 200 mg/kg, day 42): 552500 and 365000 and 477500 and 437500 and 560000 and 517500 | efficacy in the conventional mouse model of TB (Mtb H37Rv [5]; 100 and 200 mg/kg p.o.): failed to show efficacy | delivery into the lungs [6]: efficiently delivered into the lungs | C48 in Plasma ([6]; 0 hr): 0 ng/mL | C48 in lung ([6]; 0 hr): 0 ng/mL | C48 in Plasma ([6]; 1 hr): 17400 ng/mL and 12000 ng/mL and 17900 ng/mL | C48 in lung ([6]; 1 hr): 11264.6 ng/mL and 8012.8 ng/mL and 9904.4 ng/mL | C48 in Plasma ([6]; 3 hr): 7710 ng/mL and 11800 ng/mL and 12100 ng/mL | C48 in lung ([6]; 3 hr): 3273.1 ng/mL and 5600.4 ng/mL and 5866.1 ng/mL | Growth compared to DMSO control (%) (HT-29; 3.13 μM): 103.339% and 102.14% and 102.153% | Growth compared to DMSO control (%) (HT-29; 6.25 μM): 105.34% and 100.609% and 100.571% | Growth compared to DMSO control (%) (HT-29; 12.5 μM): 103.832% and 99.2439% and 99.2304% | Growth compared to DMSO control (%) (HT-29; 25 μM): 102.371% and 98.4085% and 97.2044% | Growth compared to DMSO control (%) (HT-29; 50 μM): 101.665% and 97.1295% and 96.4305% | Growth compared to DMSO control (%) (HT-29; 100 μM): 100.396% and 97.8669% and 97.7498% | cytotoxicity toward HT-29 (HT-29; concentrations up to 100 μM): no cytotoxicity | MIC (M. bovis 0AF2122): 0.0313 µM (≈ 0.0131 µg/mL) | MIC (S. aureus): inactive | Ki (BioA; 5 nM BioA, Morrison analysis, read-out: BioA inhibition constant (Ki)): 0.2 nM | remaining activity at 0.000520246 µM (BioA; Fig. 2A, [Inhibitor C48] 0.520246 nM, read-out: Fractional Vilocity (Vi/Vo %)): 104% | remaining activity at 0.000780369 µM (BioA; Fig. 2A, [Inhibitor C48] 0.780369 nM, read-out: Fractional Vilocity (Vi/Vo %)): 90.9% | remaining activity at 0.00117055 µM (BioA; Fig. 2A, [Inhibitor C48] 1.17055 nM, read-out: Fractional Vilocity (Vi/Vo %)): 87.2% | remaining activity at 0.00175583 µM (BioA; Fig. 2A, [Inhibitor C48] 1.75583 nM, read-out: Fractional Vilocity (Vi/Vo %)): 81% | remaining activity at 0.00263374 µM (BioA; Fig. 2A, [Inhibitor C48] 2.63374 nM, read-out: Fractional Vilocity (Vi/Vo %)): 71.8% | remaining activity at 0.00395062 µM (BioA; Fig. 2A, [Inhibitor C48] 3.95062 nM, read-out: Fractional Vilocity (Vi/Vo %)): 58.3% | remaining activity at 0.00592593 µM (BioA; Fig. 2A, [Inhibitor C48] 5.92593 nM, read-out: Fractional Vilocity (Vi/Vo %)): 37.4% | remaining activity at 0.0074 µM (BioA; Fig. 2A, [Inhibitor C48] 7.4 nM, read-out: Fractional Vilocity (Vi/Vo %)): 29.2% | remaining activity at 0.00888889 µM (BioA; Fig. 2A, [Inhibitor C48] 8.88889 nM, read-out: Fractional Vilocity (Vi/Vo %)): 20.9% | remaining activity at 0.0133333 µM (BioA; Fig. 2A, [Inhibitor C48] 13.3333 nM, read-out: Fractional Vilocity (Vi/Vo %)): 9.57% | remaining activity at 0.02 µM (BioA; Fig. 2A, [Inhibitor C48] 20 nM, read-out: Fractional Vilocity (Vi/Vo %)): 4.24% | remaining activity at 0.03 µM (BioA; Fig. 2A, [Inhibitor C48] 30 nM, read-out: Fractional Vilocity (Vi/Vo %)): 1.42% | remaining activity at […] (BioA; read-out: Fractional Vilocity (Vi/Vo %)): 13.1% | MIC (K. pneumoniae ATCC 43816): inactive | Laurdan GP (Mtb; +Biotin): 0.2273 and 0.2244 and 0.2183 | Laurdan GP (Mtb; -Biotin): 0.2797 and 0.2817 and 0.2774 | laurdan GP change (Mtb; without biotin): increase | MIC (M. abscessus; ATCC19977, read-out: MIC (50% growth inhibition), M. abscessus (ATCC19977), reference strain): 0.5 µM (≈ 0.209 µg/mL) | MIC (M. abscessus; M. abscessus, NTM, footnote mark d, read-out: MIC): 0.5 to 1 µM (≈ 0.209 to 0.418 µg/mL) | MIC (M. abscessus; read-out: MIC (50% growth inhibition), M. abscessus BWH-B, clinical strain): 0.5 µM (≈ 0.209 µg/mL) | MIC (M. abscessus; read-out: MIC (50% growth inhibition), M. abscessus BWH-D, clinical strain): 0.5 µM (≈ 0.209 µg/mL) | MIC (M. abscessus; read-out: MIC (50% growth inhibition), M. abscessus T35, clinical strain): 0.5 µM (≈ 0.209 µg/mL) | MIC (M. abscessus; read-out: MIC (50% growth inhibition), M. abscessus T37, clinical strain): 1 µM (≈ 0.418 µg/mL) | MIC (M. abscessus; read-out: MIC (50% growth inhibition), M. abscessus T38, clinical strain): 1 µM (≈ 0.418 µg/mL) | MIC (M. abscessus; read-out: MIC (50% growth inhibition), M. abscessus T49, clinical strain): 0.5 µM (≈ 0.209 µg/mL) | MIC (M. abscessus; read-out: MICs against nontuberculous mycobacteria (NTM)): 0.5 to 1 µM (≈ 0.209 to 0.418 µg/mL) | MIC (P. aeruginosa PA01): inactive | MIC (A. baumannii ATCC 17978): inactive | plasma concentration ([7]; 0 h): 0 | plasma concentration ([7]; 0.5 h, 25 mg/kg): 10400 and 11300 and 10800 | plasma concentration ([7]; 1 h, 25 mg/kg): 15700 and 11100 and 13300 | plasma concentration ([7]; 3 h, 25 mg/kg): 12000 and 11100 and 12600 | plasma concentration ([7]; 5 h, 25 mg/kg): 14500 and 12000 and 8860 | plasma concentration ([7]; 7 h, 25 mg/kg): 9480 and 6360 and 8380 | MIC50 (Mtb H37Rv [8]): 0.093 µM (≈ 0.0389 µg/mL) | MIC (M. africanum): 0.012 µM (≈ 0.00502 µg/mL)
